Assay results: patent publication US20090281049A1, “New use of ginsenoside compound-k in manufacturing medicaments” (priority 2006, published 2009)

Tests used:
[1] = system: Adjuvant Arthritis in rats; assay: Treatment effect on adjuvant induced adjuvant arthritis in rats; assay type: in vivo, Rat, SD strain
Method: Freund's Adjuvant Complete, purchased from Sigma Company, was injected into the plantar surface of the right hind paw by 0.1 ml in order to induce inflammation in rats.
Animals were firstly divided into large dose group: 10 mg/kg, iv, medium dose group: 5 mg/kg, iv, small dose group: 2.5 mg/kg, iv, Indomethacin group: 1 mg/kg, po, Tripterygium Wilfordii Hook group: 1.5 mg/kg, po. and blank control group: physiological saline 10 mg/kg, iv. The volume of the right hind paw of the rats was measured by using hydroplethismometer before inflammation induced. Then 0.1 ml Freund's Adjuvant Complete was injected into the plantar surface of the right hind paw in order to induce inflammation in rats. 20 days after inflammation induced, the rats were grouped by the foregoing division method and to be administered for 8 days. The volume of paw was measured in regular intervals. Swell rate and inhibition rate were calculated with the same method as the foregoing. Differences among groups were compared with t test.

[2] = system: Collagen Type II (CII) induced arthritis in rats; assay: Preventive effect on Collagen Type II (CII) induced arthritis in rats; assay type: in vivo, Rat, SD strain
Method: Inflammation-induced agent: Collagen Type II was dissolved in 0.1 mol/L acetic acid to make final concentration be 2 mg/ml collagen solution, and held in 4° C. overnight. The Collagen Type II solution was added to cold Freund's Adjuvant Incomplete by drops (Collagen Type II: Freund's Adjuvant Incomplete=1:1) on the next day, emulsified completely (Type II Collagen solution: Freund's Adjuvant Incomplete=1:1), and the final concentration of Collagen Type II was 1 mg/ml. The Collagen Type II emulsion was reserved in a refrigerator at 4° C.
Immune method: Each rat was immunized by being injected subcutaneously at 5 points on the back with 0.1 ml emulsion in each point, total of […] (contained 0.5 mg Collagen Type II), and immunized again in the same way 7 days later. An emulsion of 0.1 mol/L acetic acid and Freund's Adjuvant Incomplete was injected in control group. The swell values of the arthrosis in right hind ankle and foot were measured respectively by using a hydroplethismometer before injection and 20 days after immunization.
The Collagen Type II solution, which had been dissolved in acetic acid and held overnight, was adjusted to concentration 2 mg/ml, then added by drops slowly to Freund's Adjuvant Incomplete in proportion of 1:1. After the mixture was emulsified completely, each rat was injected subcutaneously at 5 points on the back with 0.1 ml emulsion in each point (total 0.5 ml in each rat, containing 0.5 mg Collagen Type II) for the first immunization. 7 days later, the second immunization was repeated in the same way.
The animals were divided into large dose group: Ginsenoside Compound-K, 10 mg/kg, iv, medium dose group: Ginsenoside Compound-K, 5 mg/kg, iv, small dose group: Ginsenoside Compound-K, 2.5 mg/kg, iv, Tripterygium Wilfordii Hook group: 1.5 mg/kg, po-, Enbrel group: 9 mg/kg, sc and blank control group: physiological saline 10 mg/kg, iv. The animals of administration groups were administered at the first immunization and stopped administering 8 days after the first immunization. The swell value of arthrosis in ankle and foot was measured by using hydroplethismometer before immunization and on day 20, 22, 24, 27 and 29 after the first immunization respectively. Swell rate and inhibition rate were calculated by the same method as the foregoing. Differences among groups were compared with t test. When the treatment finished, the arthroses in ankle and foot were taken for pathological examination.

[3] = mice, 360 mg/kg iv

CC(C)=CCC[C@](C)(O[C@@H]1O[C@H](CO)[C@@H](O)[C@H](O)[C@H]1O)[C@H]1CC[C@]2(C)[C@@H]1[C@H](O)C[C@@H]1[C@@]3(C)CC[C@H](O)C(C)(C)[C@@H]3CC[C@]12C [Ginsenoside Compound-K, ginsenoside Compound-K]
swell value ([1]; 2.5 mg/kg iv, 0 day): 1.06 ± 0.09 mL
inhibition rate ([1]; 2.5 mg/kg iv, 19 day): <14.36> %
swell rate ([1]; 2.5 mg/kg iv, 19 day): (84.26 ± 14.31) %
swell value ([1]; 2.5 mg/kg iv, 19 day): 1.96 ± 0.16 mL
inhibition rate ([1]; 2.5 mg/kg iv, 21 day): <15.81> %
swell rate ([1]; 2.5 mg/kg iv, 21 day): (89.42 ± 18.47) %
swell value ([1]; 2.5 mg/kg iv, 21 day): 2.00 ± 0.07 mL
inhibition rate ([1]; 2.5 mg/kg iv, 23 day): <24.02> %
swell rate ([1]; 2.5 mg/kg iv, 23 day): (80.92 ± 16.84) %
swell value ([1]; 2.5 mg/kg iv, 23 day): 1.91 ± 0.08 mL
inhibition rate ([1]; 2.5 mg/kg iv, 26 day): <27.71> %
swell rate ([1]; 2.5 mg/kg iv, 26 day): (81.13 ± 10.03) %
swell value ([1]; 2.5 mg/kg iv, 26 day): 1.92 ± 0.08 mL
inhibition rate ([1]; 2.5 mg/kg iv, 30 day): <19.36> %
swell rate ([1]; 2.5 mg/kg iv, 30 day): (84.80 ± 19.66) %
swell value ([1]; 2.5 mg/kg iv, 30 day): 1.96 ± 0.16 mL
swell value ([1]; 5 mg/kg iv, 0 day): 1.10 ± 0.09 mL
inhibition rate ([1]; 5 mg/kg iv, 19 day): <17.31> %
swell rate ([1]; 5 mg/kg iv, 19 day): (81.36 ± 13.10) %
swell value ([1]; 5 mg/kg iv, 19 day): 2.00 ± 0.12 mL
inhibition rate ([1]; 5 mg/kg iv, 21 day): <20.85> %
swell rate ([1]; 5 mg/kg iv, 21 day): (84.07 ± 18.91) %
swell value ([1]; 5 mg/kg iv, 21 day): 2.03 ± 0.20 mL
inhibition rate ([1]; 5 mg/kg iv, 23 day): <23.19> %
swell rate ([1]; 5 mg/kg iv, 23 day): (81.81 ± 14.58) %
swell value ([1]; 5 mg/kg iv, 23 day): 2.01 ± 0.23 mL
inhibition rate ([1]; 5 mg/kg iv, 26 day): <27.40> %
swell rate ([1]; 5 mg/kg iv, 26 day): (81.48 ± 11.30) %
swell value ([1]; 5 mg/kg iv, 26 day): 2.00 ± 0.19 mL
inhibition rate ([1]; 5 mg/kg iv, 30 day): <20.33> %
swell rate ([1]; 5 mg/kg iv, 30 day): (83.77 ± 17.65) %
swell value ([1]; 5 mg/kg iv, 30 day): 2.03 ± 0.25 mL
swell value ([1]; 10 mg/kg iv, 0 day): 1.05 ± 0.09 mL
inhibition rate ([1]; 10 mg/kg iv, 19 day): <9.69> %
swell rate ([1]; 10 mg/kg iv, 19 day): (88.85 ± 23.27) %
swell value ([1]; 10 mg/kg iv, 19 day): 1.97 ± 0.24 mL
inhibition rate ([1]; 10 mg/kg iv, 21 day): <31.57> %
swell rate ([1]; 10 mg/kg iv, 21 day): (72.69 ± 29.97) %
swell value ([1]; 10 mg/kg iv, 21 day): 1.81 ± 0.33 mL
inhibition rate ([1]; 10 mg/kg iv, 23 day): <31.92> %
swell rate ([1]; 10 mg/kg iv, 23 day): (72.50 ± 22.18) %
swell value ([1]; 10 mg/kg iv, 23 day): 1.80 ± 0.21 mL
inhibition rate ([1]; 10 mg/kg iv, 26 day): <36.15> %
swell rate ([1]; 10 mg/kg iv, 26 day): (71.66 ± 24.46) %
swell value ([1]; 10 mg/kg iv, 26 day): 1.79 ± 0.24 mL
inhibition rate ([1]; 10 mg/kg iv, 30 day): <32.32> %
swell rate ([1]; 10 mg/kg iv, 30 day): (71.17 ± 17.97) %
swell value ([1]; 10 mg/kg iv, 30 day): 1.80 ± 0.26 mL
overall treatment effect on Adjuvant Arthritis ([1]; rats, 10, 5, 2.5 mg/kg iv for 8 days from day 20): able to cure Adjuvant Arthritis in rats
swell value ([2]; 2.5 mg/kg iv, 0 day): 1.09 ± 0.04 mL
inhibition rate ([2]; 2.5 mg/kg iv, 20 day): <23.26> %
swell rate ([2]; 2.5 mg/kg iv, 20 day): (40.29 ± 18.03) %
swell value ([2]; 2.5 mg/kg iv, 20 day): 1.39 ± 0.24 mL
inhibition rate ([2]; 2.5 mg/kg iv, 22 day): <24.39> %
swell rate ([2]; 2.5 mg/kg iv, 22 day): (38.98 ± 18.96) %
swell value ([2]; 2.5 mg/kg iv, 22 day): 1.38 ± 0.24 mL
inhibition rate ([2]; 2.5 mg/kg iv, 24 day): <25.92> %
swell rate ([2]; 2.5 mg/kg iv, 24 day): (38.92 ± 15.07) %
swell value ([2]; 2.5 mg/kg iv, 24 day): 1.37 ± 0.24 mL
inhibition rate ([2]; 2.5 mg/kg iv, 27 day): <27.08> %
swell rate ([2]; 2.5 mg/kg iv, 27 day): (36.93 ± 13.02) %
swell value ([2]; 2.5 mg/kg iv, 27 day): 1.35 ± 0.22 mL
inhibition rate ([2]; 2.5 mg/kg iv, 29 day): <27.60> %
swell rate ([2]; 2.5 mg/kg iv, 29 day): (31.75 ± 13.70) %
swell value ([2]; 2.5 mg/kg iv, 29 day): 1.33 ± 0.17 mL
swell value ([2]; 5 mg/kg iv, 0 day): 1.11 ± 0.06 mL
inhibition rate ([2]; 5 mg/kg iv, 20 day): <29.01> %
swell rate ([2]; 5 mg/kg iv, 20 day): (37.27 ± 15.30) %
swell value ([2]; 5 mg/kg iv, 20 day): 1.43 ± 0.23 mL
inhibition rate ([2]; 5 mg/kg iv, 22 day): <32.11> %
swell rate ([2]; 5 mg/kg iv, 22 day): (35.00 ± 15.12) %
swell value ([2]; 5 mg/kg iv, 22 day): 1.41 ± 0.22 mL
inhibition rate ([2]; 5 mg/kg iv, 24 day): <31.56> %
swell rate ([2]; 5 mg/kg iv, 24 day): (35.95 ± 11.21) %
swell value ([2]; 5 mg/kg iv, 24 day): 1.45 ± 0.17 mL
inhibition rate ([2]; 5 mg/kg iv, 27 day): <31.57> %
swell rate ([2]; 5 mg/kg iv, 27 day): (34.66 ± 13.01) %
swell value ([2]; 5 mg/kg iv, 27 day): 1.41 ± 0.23 mL
inhibition rate ([2]; 5 mg/kg iv, 29 day): <29.04> %
swell rate ([2]; 5 mg/kg iv, 29 day): (31.12 ± 13.81) %
swell value ([2]; 5 mg/kg iv, 29 day): 1.39 ± 0.18 mL
swell value ([2]; 10 mg/kg iv, 0 day): 1.08 ± 0.07 mL
inhibition rate ([2]; 10 mg/kg iv, 20 day): <32.97> %
swell rate ([2]; 10 mg/kg iv, 20 day): (35.19 ± 19.75) %
swell value ([2]; 10 mg/kg iv, 20 day): 1.37 ± 0.26 mL
inhibition rate ([2]; 10 mg/kg iv, 22 day): <47.51> %
swell rate ([2]; 10 mg/kg iv, 22 day): (27.06 ± 19.03) %
swell value ([2]; 10 mg/kg iv, 22 day): 1.30 ± 0.23 mL
inhibition rate ([2]; 10 mg/kg iv, 24 day): <48.29> %
swell rate ([2]; 10 mg/kg iv, 24 day): (27.16 ± 16.39) %
swell value ([2]; 10 mg/kg iv, 24 day): 1.31 ± 0.21 mL
inhibition rate ([2]; 10 mg/kg iv, 27 day): <44.61> %
swell rate ([2]; 10 mg/kg iv, 27 day): (28.05 ± 14.52) %
swell value ([2]; 10 mg/kg iv, 27 day): 1.32 ± 0.19 mL
inhibition rate ([2]; 10 mg/kg iv, 29 day): <34.19> %
swell rate ([2]; 10 mg/kg iv, 29 day): (28.86 ± 19.06) %
swell value ([2]; 10 mg/kg iv, 29 day): 1.32 ± 0.23 mL
overall preventive effect on Collagen Type II induced arthritis ([2]; rats, 10, 5, 2.5 mg/kg iv): able to prevent Collagen Type II induced arthritis
behaviour after intravenous injection [3]: their act was normal and no behavior out of the way was observed
